Experimental data reported in patent US20040131619A1, “Thymic atrophy” (DUKE UNIVERSITY, priority 2002, published 2004).

How the values were obtained:
[1] = system: BALB/c mice; assay: LIF-induced acute thymic atrophy (metyrapone pre-treatment, adrenalectomy); assay type: in vivo; conditions: metyrapone 30 mg/kg IP 24 hours before LIF for 3 days; P<0.0094
Experimental: Normal and adrenalectomized female BALB/c mice (6-8 week) were purchased from The Jackson Laboratory (Bar Harbor, Me.). Animals were housed in specific pathogen free conditions in the Duke University Vivarium Barrier (Durham, N.C.). Mouse handling and experimental procedures were conducted in accordance with AALAC and the Duke University IACUC guidelines for animal care and use.
Animals were treated with either E. coli LPS (Sigma, L2880, St. Louis, Mo.), recombinant murine LIF (R&D Systems, Minneapolis, Minn.), goat IgG (Sigma) or anti-mouse LIF polyclonal goat IgG (R&D Systems) and metyrapone (Sigma). Mouse thymus tissue was excised following euthanasia. Half of each thymus was snap frozen in a dry ice/ETOH bath and stored in liquid nitrogen for RNA extraction and the other half was teased into a single-cell suspension as previously described (Sempowski et al, Journal of Immunology 164:2180 (2000)). […]
Normal and bilaterally adrenalectomized BALB/c mice were treated with LIF (3 μg, 3× a day) or saline for 3 days, and the degree of thymic atrophy assessed. […] To evaluate the status of LIF mRNA in the thymus of LIF injected mice, thymus LIF mRNA levels were determined in control and LIF-treated mice. […]

[2] = system: CD3+, CD4/CD8 DP thymocytes; assay: Murine fetal thymic organ culture (FTOC); assay type: cell-based, mouse
Experimental: Phenotypic analysis of thymocyte suspensions was performed on a FACSVantage SE (Becton Dickinson) using fluorescein isothiocyanate-CD3, phycoerythrin-CD4, and phycoerythrin cychrome 5-CD8 (Pharmingen) as previously described (Sempowski et al, Journal of Immunology 164:2180 (2000)). Annexin V-FITC/propidium iodide (PI) staining was used to determine thymocyte apoptosis, necrosis and viability (Coulter).
FTOC were established following the methods described by Vacchio et al. (Journal of Experimental Medicine 185:2033 (1997)). Briefly, thymic lobes were removed from 17 day gestation fetal mice and were cultured in 6-well plates on Gelfoam (Pharmacia & Upjohn, Kalamazoo, Mich.) rafts. Cultures (2-4 lobes/well) were treated with murine LIF (R&D Systems) with or without metyrapone and then harvested by disruption against a 70 μm cell strainer (Becton Dickinson) with a 1 cc plunger (Becton Dickinson). Total thymocyte number per lobe was determined by hemacytometer count with trypan dye exclusion.
To directly determine if LIF can induce intrathymic corticosteroid production and thymocyte depletion, 17 day fetal thymic lobes in FTOC were treated with LIF (10 ng/ml) in the presence or absence of metyrapone (FIG. 4). Absolute numbers of CD3^+, CD4/CD8 DP thymocytes were quantitated as a measure of in vitro LIF-induced thymic atrophy after 72 hours. […]

CC(C)(C(=O)c1cccnc1)c1cccnc1 [Metyrapone, metyrapone]
inhibition of LIF-induced acute thymic atrophy [1]: 43% | depletion of DP thymocytes ([2]; FTOC, 72 hours, agent alone (LIF 10 ng/ml; metyrapone alone), P<0.05): 8% | LIF-induced depletion of DP thymocytes ([2]; metyrapone added to LIF-treated (10 ng/ml) FTOC): prevented
